Experimental data as given in US20230407243A1, “GENETIC PLATFORM TO INVESTIGATE THE FUNCTIONS OF BACTERIAL DRUG EFFLUX PUMPS” (priority 2022, published 2023).

How the values were obtained:
Format in all cases: cell-based, Escherichia coli
[1] = tested on: EKO-35 araC::emrAB Pore; assay: MIC susceptibility profiling, porinated efflux platform; conditions: for Fold changes of MICs: EKO-35 araC::emrAB Pore compared to EKO-35-Pore; for MIC: Escherichia coli, read-out: Minimum inhibitory concentration
In short: (§1)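 Strains carry the fhuA ΔC/Δ4L pore integrated between glmS and pstS under a constitutive promoter, with pore activity checked by vancomycin susceptibility. Overnight LB cultures were adjusted in PBS pH 7.4 to OD600 ~1.0 and diluted 1/2000 into MHB II. 2-fold compound titrations were read by OD600 after 18 h at 37 °C.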

[2] = tested on: EKO-35 araC::mexCD Pore; assay: as above; conditions: for Fold changes of MICs: EKO-35 araC::mexCD Pore compared to EKO-35-Pore; for MIC: Escherichia coli, read-out: Minimum inhibitory concentration
In short: as §1

[3] = tested on: EKO-35 araC::mdtBC Pore; assay: as above; conditions: for Fold changes of MICs: EKO-35 araC::mdtBC Pore compared to EKO-35-Pore; for MIC: Escherichia coli, read-out: Minimum inhibitory concentration
In short: as §1

[4] = tested on: EKO-35 araC::mdtEF Pore; assay: as above; conditions: for Fold changes of MICs: EKO-35 araC::mdtEF Pore compared to EKO-35-Pore; for MIC: Escherichia coli, read-out: Minimum inhibitory concentration, EKO-35 araC::mdtEF Pore
In short: as §1

[5] = tested on: EKO-35 araC::emrKY Pore; assay: as above; conditions: for Fold changes of MICs: EKO-35 araC::emrKY Pore compared to EKO-35-Pore; for MIC: Escherichia coli, read-out: Minimum inhibitory concentration
In short: as §1

[6] = tested on: EKO-35 araC::macAB Pore; assay: as above; conditions: for Fold changes of MICs: EKO-35 araC::macAB Pore compared to EKO-35-Pore; for MIC: Escherichia coli, read-out: Minimum inhibitory concentration
In short: as §1

[7] = tested on: EKO-35 araC::acrEF Pore; assay: as above; conditions: for Fold changes of MICs: EKO-35 araC::acrEF Pore compared to EKO-35-Pore; for MIC: Escherichia coli, read-out: Minimum inhibitory concentration, EKO-35 araC::acrEF Pore
In short: as §1

[8] = tested on: EKO-35 araC::acrBD408A Pore; assay: as above; conditions: for Fold changes of MICs: EKO-35 araC::acrBD408A Pore compared to EKO-35-Pore; for MIC: Escherichia coli, read-out: Minimum inhibitory concentration
In short: as §1

[9] = tested on: EKO-35 araC::acrB Pore; assay: as above; conditions: for Fold changes of MICs: EKO-35 araC::acr-B Pore compared to EKO-35-Pore
In short: as §1

[10] = tested on: EKO-35 araC::acrD Pore; assay: as above; conditions: for Fold changes of MICs: EKO-35 araC::acrD Pore compared to EKO-35-Pore; for MIC: Escherichia coli, read-out: Minimum inhibitory concentration, EKO-35 araC::acrD Pore
In short: as §1

[11] = tested on: EKO-35 araC::mdtBC; assay: MIC susceptibility profiling, efflux platform; conditions: for Fold change of MICs: EKO-35 araC::mdtBC compared to EKO-35; for MIC: Escherichia coli, read-out: Minimum Inhibitory Concentration, EKO-35 araC::mdtBC
In short: (§2)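 Strains are grown overnight in LB at 37 °C, adjusted to OD600 ~1.0 in PBS (pH 7.4) and diluted 1/2000 into MHB II. They are incubated with twofold compound dilutions for 18 h at 37 °C. MIC comes from background-subtracted OD600.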

[12] = tested on: EKO-35 araC::emrKY; assay: MIC susceptibility profiling, efflux platform; conditions: for MIC: Escherichia coli, read-out: Minimum Inhibitory Concentration, EKO-35 araC::emrKY; for Fold change of MICs: EKO-35 araC::emrKY compared to EKO-35
In short: as §2

[13] = tested on: EKO-35 araC::macAB; assay: MIC susceptibility profiling, efflux platform; conditions: for Fold change of MICs: EKO-35 araC::macAB compared to EKO-35
In short: as §2

[14] = tested on: EKO-35 araC::emrAB; assay: MIC susceptibility profiling, efflux platform; conditions: for Fold change of MICs: EKO-35 araC::emrAB compared to EKO-35; for MIC: Escherichia coli, read-out: Minimum Inhibitory Concentration, EKO-35 araC::emrAB
In short: as §2

[15] = tested on: EKO-35 araC::acrBD408A; assay: MIC susceptibility profiling, efflux platform; conditions: for Fold change of MICs: EKO-35 araC::acrBD408A compared to EKO-35; for MIC: Escherichia coli, read-out: Minimum Inhibitory Concentration, EKO-35 araC::acrBD408A
In short: as §2

[16] = tested on: EKO-35 araC::acrEF; assay: MIC susceptibility profiling, efflux platform; conditions: for Fold change of MICs: EKO-35 araC::acrEF compared to EKO-35
In short: as §2

[17] = tested on: EKO-35 araC::acrD; assay: MIC susceptibility profiling, efflux platform; conditions: for Fold change of MICs: EKO-35 araC::acrD compared to EKO-35; for MIC: Escherichia coli, read-out: Minimum Inhibitory Concentration, EKO-35 araC::acrD
In short: as §2

[18] = tested on: EKO-35 araC::mexCD (MexCD from P. aeruginosa); assay: MIC susceptibility profiling, efflux platform; conditions: for Fold change of MICs: EKO-35 araC::mexCD compared to EKO-35; for MIC: read-out: Minimum Inhibitory Concentration, EKO-35 araC::mexCD
In short: as §2

[19] = EKO-35 araC::emrAB Pore, technical duplicate
[20] = EKO-35 araC::mexCD Pore, technical duplicate
[21] = EKO-35 araC::mdtBC Pore, technical duplicate
[22] = Table 14A, porinated, technical duplicate
[23] = EKO-35 araC::emrKY Pore, technical duplicate
[24] = EKO-35 araC::macAB Pore, technical duplicate
[25] = EKO-35 araC::acrBD408A Pore, technical duplicate
[26] = Table 13B, non-porinated, technical duplicate
[27] = Table 13A, non-porinated, technical duplicate

Compound: CCn1cc(C(=O)O)c(=O)c2cc(F)c(N3CCNCC3)cc21 [norfloxacin]
- Fold changes of MICs [1]: 2 fold
- MIC [1, 19]: 0.02 µg/mL
- Fold changes of MICs [2]: 4 fold
- MIC [2, 20]: 0.039 µg/mL
- efflux pump-mediated resistance vs EKO-35-Pore ([2]; MexCD, OM compromised): increased resistance
- Fold changes of MICs [3]: 2 fold
- MIC [3, 21]: 0.02 µg/mL
- Fold changes of MICs [4]: 2 fold
- MIC [4, 22]: 0.02 µg/mL
- Fold changes of MICs [5]: 1 fold
- MIC [5, 23]: 0.01 µg/mL
- Fold changes of MICs [6]: 2 fold
- MIC [6, 24]: 0.02 µg/mL
- Fold changes of MICs [7]: 4 fold
- MIC [7, 22]: 0.039 µg/mL
- Fold changes of MICs [8]: 2 fold
- MIC [8, 25]: 0.02 µg/mL
- Fold changes of MICs [9]: 8 fold
- Fold changes of MICs [10]: 2 fold
- MIC [10, 22]: 0.02 µg/mL
- Fold change of MICs [11]: 1 fold
- MIC [11, 26]: 0.02 µg/mL
- MIC [12, 26]: 0.01 µg/mL
- Fold change of MICs [13]: 1 fold
- MIC ([13]; Escherichia coli, Table 13B, non-porinated, technical duplicate, read-out: Minimum Inhibitory Concentration, EKO-35 araC::macAB): 0.02 µg/mL
- Fold change of MICs [14]: 1 fold
- MIC [14, 26]: 0.02 µg/mL
- Fold change of MICs [15]: 1 fold
- MIC [15, 26]: 0.02 µg/mL
- Fold change of MICs [16]: 4 fold
- Fold change of MICs [17]: 1 fold
- MIC [17, 27]: 0.02 µg/mL
- Fold change of MICs [18]: 2 fold
- MIC [18, 26]: 0.039 µg/mL

Compound: CC1(C)S[C@@H]2[C@H](NC(=O)[C@H](N)c3ccccc3)C(=O)N2[C@H]1C(=O)O [ampicillin]
- Fold changes of MICs [1]: 1 fold
- MIC [1, 19]: 0.781 µg/mL
- Fold changes of MICs [2]: 1 fold
- MIC [2, 20]: 1.56 µg/mL
- Fold changes of MICs [3]: 1 fold
- MIC [3, 21]: 0.781 µg/mL
- Fold changes of MICs [4]: 1 fold
- MIC [4, 22]: 1.56 µg/mL
- Fold changes of MICs [5]: 2 fold
- MIC [5, 23]: 3.12 µg/mL
- Fold changes of MICs [6]: 1 fold
- MIC [6, 24]: 1.56 µg/mL
- Fold changes of MICs [7]: 2 fold
- MIC [7, 22]: 3.12 µg/mL
- Fold changes of MICs [8]: 1 fold
- MIC [8, 25]: 0.781 µg/mL
- Fold changes of MICs [9]: 8 fold
- Fold changes of MICs [10]: 16 fold
- MIC [10, 22]: 25 µg/mL
- Fold change of MICs [11]: 1 fold
- MIC [11, 26]: 25 µg/mL
- Fold change of MICs [12]: 1 fold
- MIC [12, 26]: 25 µg/mL
- Fold change of MICs [13]: 1 fold
- Fold change of MICs [14]: 1 fold
- MIC [14, 26]: 25 µg/mL
- Fold change of MICs [15]: 1 fold
- MIC [15, 26]: 25 µg/mL
- Fold change of MICs [16]: 2 fold
- MIC ([16]; Escherichia coli, Table 13A, non-porinated, technical duplicate, read-out: Minimum Inhibitory Concentration, EKO-35 araC::acrEF): 50 µg/mL
- Fold change of MICs [17]: 4 fold
- MIC [17, 27]: 100 µg/mL
- Fold change of MICs [18]: 1 fold
- MIC [18, 26]: 25 µg/mL

Compound: C=C1CCO[C@]2([C@@H](O)[C@@](C)(O)CO)NC(=O)[C@@]1(O)NC2=O [Bicyclomycin]
- Fold changes of MICs [1]: 1 fold
- Minimum inhibitory concentration [1, 19]: 200 µg/mL
- Fold changes of MICs [2]: 1 fold
- Minimum inhibitory concentration [2, 20]: 200 µg/mL
- Fold changes of MICs [3]: 1 fold
- Minimum inhibitory concentration [3, 21]: 200 µg/mL
- Fold changes of MICs [4]: 1 fold
- Minimum inhibitory concentration, EKO-35 araC::mdtEF Pore [4, 22]: 200 µg/mL
- Fold changes of MICs [5]: 1 fold
- Minimum inhibitory concentration [5, 23]: 200 µg/mL
- Fold changes of MICs [6]: 1 fold
- Minimum inhibitory concentration [6, 24]: 200 µg/mL
- Fold changes of MICs [7]: 1 fold
- Minimum inhibitory concentration, EKO-35 araC::acrEF Pore [7, 22]: 200 µg/mL
- Fold changes of MICs [8]: 1 fold
- Minimum inhibitory concentration [8, 25]: 200 µg/mL
- Fold changes of MICs [9]: 1 fold
- Minimum inhibitory concentration, EKO-35 araC::acrB Pore [9, 22]: 200 µg/mL
- Fold changes of MICs [10]: 1 fold
- Minimum inhibitory concentration, EKO-35 araC::acrD Pore [10, 22]: 200 µg/mL
- Fold change of MICs [11]: 1 fold
- Minimum Inhibitory Concentration, EKO-35 araC::mdtBC [11, 26]: 200 µg/mL
- Fold change of MICs [12]: 1 fold
- Minimum Inhibitory Concentration, EKO-35 araC::emrKY [12, 26]: 200 µg/mL
- Fold change of MICs [13]: 1 fold
- Minimum Inhibitory Concentration, EKO-35 araC::macAB [13, 26]: 200 µg/mL
- Fold change of MICs [14]: 1 fold
- Minimum Inhibitory Concentration, EKO-35 araC::emrAB [14, 26]: 200 µg/mL
- Fold change of MICs [15]: 1 fold
- Minimum Inhibitory Concentration, EKO-35 araC::acrBD408A [15, 26]: 200 µg/mL
- Fold change of MICs [16]: 1 fold
- Minimum Inhibitory Concentration, EKO-35 araC::acrEF [16, 27]: 200 µg/mL
- Fold change of MICs [17]: 1 fold
- Minimum Inhibitory Concentration, EKO-35 araC::acrD [17, 27]: 200 µg/mL
- Fold change of MICs [18]: 1 fold
- Minimum Inhibitory Concentration, EKO-35 araC::mexCD [18, 26]: 200 µg/mL
